Measured values: ChEMBL document CHEMBL4229400, “Covalent inhibitors of nicotinamide N-methyltransferase (NNMT) provide evidence for target engagement challenges in situ” (Bioorg Med Chem Lett, 2018)
Positions count from the first letter of the chain named. The source made the active and inactive calls. The rule behind the calls is not given here.

What was measured:
[1] = target: T1, Nicotinamide N-methyltransferase (Homo sapiens) (UniProt P40261); assay: Binding affinity to NNMT C75 residue in human 786-O cell soluble proteomic lysate at 5 uM incubated for 1 hr followed by cell lysis by IA-alkyne probe based isoTOP-ABPP analysis relative to control
T1 sequence (whole entry): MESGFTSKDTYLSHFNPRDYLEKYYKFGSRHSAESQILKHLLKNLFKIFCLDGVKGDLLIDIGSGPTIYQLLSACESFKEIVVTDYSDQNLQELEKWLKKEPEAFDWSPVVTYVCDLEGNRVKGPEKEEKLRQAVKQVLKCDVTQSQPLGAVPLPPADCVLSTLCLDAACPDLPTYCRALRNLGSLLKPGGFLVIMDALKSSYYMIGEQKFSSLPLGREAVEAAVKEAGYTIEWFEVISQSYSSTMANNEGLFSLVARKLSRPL

[2] = target: T1, Nicotinamide N-methyltransferase (Homo sapiens); assay: Binding affinity to NNMT C165 residue in human 786-O cell lysate at 5 uM incubated for 4 hrs followed by cell lysis by IA-alkyne probe based isoTOP-ABPP analysis
[3] = target: T1, Nicotinamide N-methyltransferase (Homo sapiens); assay: Binding affinity to NNMT C165 residue in human 786-O cell soluble proteomic lysate at 1 to 5 uM incubated for 1 hr followed by cell lysis by IA-alkyne probe based isoTOP-ABPP analysis
[4] = target: T1, Nicotinamide N-methyltransferase (Homo sapiens); assay: Inhibition of SAH-rhodamine binding to NNMT in human 786-O cell soluble proteomic lysate at 2 uM preincubated for 1 hr followed by SAH-rhodamine addition measured after 5 mins by Gel-based ABPP analysis
[5] = tested on: T2, Nicotinamide N-methyltransferase (Homo sapiens), P40261 [C165A]; assay: Inhibition of NNMT C165A mutant in human 786-O cell lysate using d4-nicotinamide as substrate preincubated for 1 hr followed by substrate and SAM addition measured after 15 to 30 mins by LC-MS analysis
T2 sequence (whole entry): T1 sequence (whole entry) with C165A

[6] = target: T1, Nicotinamide N-methyltransferase (Homo sapiens); assay: Inhibition of SAH-rhodamine binding to NNMT in human 786-O cell soluble proteomic lysate assessed as ratio of observed rate constant to test compound concentration preincubated for 10 to 40 mins followed by SAH-rhodamine addition measured after 5 mins by Gel-based ABPP analysis
[7] = target: T3, Glutathione S-transferase omega-1 (Homo sapiens) (UniProt P78417); assay: Binding affinity to GSTO1 cysteine residue in human 786-O cell soluble proteomic lysate at 5 uM incubated for 1 hr followed by cell lysis by IA-alkyne probe based isoTOP-ABPP analysis
T3 sequence (whole entry): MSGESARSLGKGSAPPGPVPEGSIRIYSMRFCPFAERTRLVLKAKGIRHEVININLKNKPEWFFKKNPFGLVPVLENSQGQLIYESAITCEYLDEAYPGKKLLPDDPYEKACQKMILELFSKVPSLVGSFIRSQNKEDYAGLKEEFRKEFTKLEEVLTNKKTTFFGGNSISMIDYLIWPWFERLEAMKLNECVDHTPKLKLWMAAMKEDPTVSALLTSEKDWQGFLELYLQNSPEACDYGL

[8] = target: T4, Heme oxygenase 2 (Homo sapiens) (UniProt P30519); assay: Binding affinity to HMOX2 cysteine residue in human 786-O cell soluble proteomic lysate at 5 uM incubated for 1 hr followed by cell lysis by IA-alkyne probe based isoTOP-ABPP analysis
T4 sequence (whole entry): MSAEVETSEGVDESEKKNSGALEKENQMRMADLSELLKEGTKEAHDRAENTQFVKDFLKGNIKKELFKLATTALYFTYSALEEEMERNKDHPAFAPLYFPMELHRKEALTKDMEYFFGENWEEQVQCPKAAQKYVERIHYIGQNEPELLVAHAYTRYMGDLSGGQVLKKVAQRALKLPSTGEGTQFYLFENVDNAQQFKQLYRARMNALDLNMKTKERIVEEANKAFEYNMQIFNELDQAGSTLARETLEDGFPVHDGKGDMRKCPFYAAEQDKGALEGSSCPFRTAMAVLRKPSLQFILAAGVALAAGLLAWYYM

[9] = target: T1, Nicotinamide N-methyltransferase (Homo sapiens); assay: Binding affinity to NNMT C50 residue in human 786-O cell soluble proteomic lysate at 5 uM incubated for 1 hr followed by cell lysis by IA-alkyne probe based isoTOP-ABPP analysis relative to control
[10] = target: T5, Nicotinamide N-methyltransferase (Homo sapiens, UniProt P40261); assay: (§1) Inhibition of NNMT in human 786-O cell lysate using d4-nicotinamide as substrate preincubated for 1 hr followed by substrate and SAM addition measured after 15 to 30 mins by LC-MS analysis
T5 sequence (P40261 whole entry): T1 sequence (whole entry)

[11] = target: T1, Nicotinamide N-methyltransferase (Homo sapiens); assay: as §1
[12] = target: T1, Nicotinamide N-methyltransferase (Homo sapiens); assay: Binding affinity to NNMT C165 residue in human 786-O cell soluble proteomic lysate at 5 uM incubated for 1 hr followed by cell lysis by IA-alkyne probe based isoTOP-ABPP analysis relative to control
[13] = target: T5, Nicotinamide N-methyltransferase; assay: (§2) Inhibition of SAH-rhodamine binding to NNMT in human 786-O cell soluble proteomic lysate preincubated for 1 hr followed by SAH-rhodamine addition measured after 5 mins by Gel-based ABPP analysis
[14] = target: T1, Nicotinamide N-methyltransferase (Homo sapiens); assay: as §2
[15] = target: T1, Nicotinamide N-methyltransferase (Homo sapiens); assay: Binding affinity to NNMT C115 residue in human 786-O cell soluble proteomic lysate at 5 uM incubated for 1 hr followed by cell lysis by IA-alkyne probe based isoTOP-ABPP analysis relative to control
[16] = target: T6, Cytoskeleton-associated protein 4 (Homo sapiens) (UniProt Q07065); assay: Binding affinity to CKAP4 cysteine residue in human 786-O cell soluble proteomic lysate at 5 uM incubated for 1 hr followed by cell lysis by IA-alkyne probe based isoTOP-ABPP analysis
T6 sequence (whole entry): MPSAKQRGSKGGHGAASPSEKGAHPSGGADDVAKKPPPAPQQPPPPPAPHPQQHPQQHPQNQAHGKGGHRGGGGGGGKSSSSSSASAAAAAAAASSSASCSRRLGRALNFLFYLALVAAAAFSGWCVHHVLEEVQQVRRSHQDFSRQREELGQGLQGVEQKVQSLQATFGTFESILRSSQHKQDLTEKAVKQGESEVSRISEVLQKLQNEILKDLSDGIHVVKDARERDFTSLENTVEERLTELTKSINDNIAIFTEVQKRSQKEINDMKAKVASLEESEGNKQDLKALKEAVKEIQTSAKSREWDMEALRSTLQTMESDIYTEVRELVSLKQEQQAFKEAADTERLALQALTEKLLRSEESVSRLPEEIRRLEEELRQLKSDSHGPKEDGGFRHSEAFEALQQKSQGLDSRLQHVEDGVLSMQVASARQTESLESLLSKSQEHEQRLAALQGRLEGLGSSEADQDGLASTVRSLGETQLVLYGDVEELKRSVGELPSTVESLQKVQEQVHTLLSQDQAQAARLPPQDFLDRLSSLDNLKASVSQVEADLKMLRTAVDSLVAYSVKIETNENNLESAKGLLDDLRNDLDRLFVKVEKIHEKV

fold change (FC) [1]: 1.3
Activity [2]: inactive
Activity [3]: Active
inhibition [4]: Active
inhibition [5]: inactive
Ratio [6]: 200 M⁻¹ s⁻¹
Activity [7]: Active
Activity [8]: Active
fold change (FC) [9]: 1.3
IC50 [10]: 200 nM
inhibition [11]: Dose-dependent effect
fold change (FC) [12]: 20
IC50 [13]: 410 nM
inhibition [14]: Dose-dependent effect
fold change (FC) [15]: 1
Activity [16]: Active
Structure (SMILES): CC(C)CCN(C(=O)CCl)c1cc(C(=O)Nc2cccnc2Cl)cc(C(F)(F)F)c1
